In patent US8927717B1, “Thiochromeno[2,3-c]quinolin-12-one derivatives, preparation method and application thereof” (National Defense Medical Center, priority 2014, dated 2015):

Key:
[1] = test system: HCC-2998; format: cell-based
[2] = test system: SF-539; format: cell-based
[3] = test system: OVCAR-3; format: cell-based
[4] = test system: CCRF-CEM; format: cell-based
[5] = test system: SK-MEL-5; format: cell-based
[6] = test system: PC-3; format: cell-based
[7] = test system: SK-MEL-2; format: cell-based
[8] = test system: UACC-257; format: cell-based
[9] = test system: OVCAR-4; format: cell-based
[10] = test system: CAKI-1; format: cell-based
[11] = test system: HCT-116; format: cell-based
[12] = target: T1, TOP II (Topoisomerase II) (Homo sapiens, UniProt P11388); assay: TOP II-catalyzed relaxation of plasmid DNA assay; format: biochemical
T1 construct: purchased TopoGEN TG-2000H-1
Description: We also performed TOP II-catalyzed relaxation of plasmid DNA assays (FIG. 5-7) to evaluate if compounds could inhibit TOP II. […] The IC50 value of compounds 7, N7, N8, N14, N15, N18, and N19 were about 10, 10, 1, 10, 5, 1, and 1 μM, respectively (detect by TopoGEN TG2005H, TG-2000H-1).

[13] = test system: BT-549; format: cell-based
[14] = test system: RPMI-8226; format: cell-based
[15] = target: T2, TOP I (Topoisomerase I) (Homo sapiens, UniProt P11387); assay: TOP I mediated supercoiled DNA relaxation assay; format: biochemical; conditions: five different concentrations; TopoGEN TG2005H, TG-2000H-1
T2 construct: purchased TopoGEN TG2005H
T2 sequence (P11387 1-765): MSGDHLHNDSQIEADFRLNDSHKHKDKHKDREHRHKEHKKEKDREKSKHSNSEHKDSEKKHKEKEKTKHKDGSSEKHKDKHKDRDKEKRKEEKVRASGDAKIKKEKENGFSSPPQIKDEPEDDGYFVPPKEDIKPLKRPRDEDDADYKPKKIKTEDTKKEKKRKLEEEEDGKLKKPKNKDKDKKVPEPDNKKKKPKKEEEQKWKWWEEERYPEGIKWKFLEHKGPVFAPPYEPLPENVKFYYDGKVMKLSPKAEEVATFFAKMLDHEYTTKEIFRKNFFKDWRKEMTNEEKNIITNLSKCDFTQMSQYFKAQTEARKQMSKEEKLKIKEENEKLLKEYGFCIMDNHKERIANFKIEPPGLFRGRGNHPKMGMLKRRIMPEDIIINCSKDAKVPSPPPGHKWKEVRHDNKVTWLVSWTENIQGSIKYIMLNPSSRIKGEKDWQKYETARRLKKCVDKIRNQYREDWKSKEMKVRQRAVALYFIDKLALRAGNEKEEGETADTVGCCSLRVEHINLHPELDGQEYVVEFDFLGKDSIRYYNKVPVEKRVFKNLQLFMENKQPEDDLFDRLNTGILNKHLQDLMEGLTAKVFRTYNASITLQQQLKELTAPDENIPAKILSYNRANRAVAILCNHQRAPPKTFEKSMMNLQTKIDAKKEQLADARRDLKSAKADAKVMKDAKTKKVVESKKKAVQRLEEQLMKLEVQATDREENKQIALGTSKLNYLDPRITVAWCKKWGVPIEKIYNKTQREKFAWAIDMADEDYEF

[16] = test system: HL-60(TB); format: cell-based; conditions: 10^−5 molar; for Growth percent: HL-60(TB)
[17] = test system: IGROV1; format: cell-based
[18] = test system: COLO 205; format: cell-based
[19] = test system: SK-OV-3; format: cell-based
[20] = test system: M14; format: cell-based
[21] = test system: NCI-H460; format: cell-based
[22] = test system: HOP-92; format: cell-based
[23] = target: T2, TOP I (Topoisomerase I); assay: TOP I mediated supercoiled DNA relaxation assay; format: biochemical; conditions: primary assay at 25 and/or 50 μM
Description: According to the cell cytotoxicity, compounds 5, 7, 8, 16, 19, N2, N7, N8, N9, N14-N19, and N25 were also selected for primary TOP I and II activities assays at 25 and/or 50 μM (FIG. 2-4).

[24] = Colon cancer, 10^−5 molar, 48 hours, SRB
[25] = Ovarian cancer, 10^−5 molar, 48 hours, SRB
[26] = Leukemia, 10^−5 molar, 48 hours, SRB
[27] = Melanoma, 10^−5 molar, 48 hours, SRB
[28] = Non-small cell lung cancer, 10^−5 molar, 48 hours, SRB

T1 sequence (P11388 whole entry): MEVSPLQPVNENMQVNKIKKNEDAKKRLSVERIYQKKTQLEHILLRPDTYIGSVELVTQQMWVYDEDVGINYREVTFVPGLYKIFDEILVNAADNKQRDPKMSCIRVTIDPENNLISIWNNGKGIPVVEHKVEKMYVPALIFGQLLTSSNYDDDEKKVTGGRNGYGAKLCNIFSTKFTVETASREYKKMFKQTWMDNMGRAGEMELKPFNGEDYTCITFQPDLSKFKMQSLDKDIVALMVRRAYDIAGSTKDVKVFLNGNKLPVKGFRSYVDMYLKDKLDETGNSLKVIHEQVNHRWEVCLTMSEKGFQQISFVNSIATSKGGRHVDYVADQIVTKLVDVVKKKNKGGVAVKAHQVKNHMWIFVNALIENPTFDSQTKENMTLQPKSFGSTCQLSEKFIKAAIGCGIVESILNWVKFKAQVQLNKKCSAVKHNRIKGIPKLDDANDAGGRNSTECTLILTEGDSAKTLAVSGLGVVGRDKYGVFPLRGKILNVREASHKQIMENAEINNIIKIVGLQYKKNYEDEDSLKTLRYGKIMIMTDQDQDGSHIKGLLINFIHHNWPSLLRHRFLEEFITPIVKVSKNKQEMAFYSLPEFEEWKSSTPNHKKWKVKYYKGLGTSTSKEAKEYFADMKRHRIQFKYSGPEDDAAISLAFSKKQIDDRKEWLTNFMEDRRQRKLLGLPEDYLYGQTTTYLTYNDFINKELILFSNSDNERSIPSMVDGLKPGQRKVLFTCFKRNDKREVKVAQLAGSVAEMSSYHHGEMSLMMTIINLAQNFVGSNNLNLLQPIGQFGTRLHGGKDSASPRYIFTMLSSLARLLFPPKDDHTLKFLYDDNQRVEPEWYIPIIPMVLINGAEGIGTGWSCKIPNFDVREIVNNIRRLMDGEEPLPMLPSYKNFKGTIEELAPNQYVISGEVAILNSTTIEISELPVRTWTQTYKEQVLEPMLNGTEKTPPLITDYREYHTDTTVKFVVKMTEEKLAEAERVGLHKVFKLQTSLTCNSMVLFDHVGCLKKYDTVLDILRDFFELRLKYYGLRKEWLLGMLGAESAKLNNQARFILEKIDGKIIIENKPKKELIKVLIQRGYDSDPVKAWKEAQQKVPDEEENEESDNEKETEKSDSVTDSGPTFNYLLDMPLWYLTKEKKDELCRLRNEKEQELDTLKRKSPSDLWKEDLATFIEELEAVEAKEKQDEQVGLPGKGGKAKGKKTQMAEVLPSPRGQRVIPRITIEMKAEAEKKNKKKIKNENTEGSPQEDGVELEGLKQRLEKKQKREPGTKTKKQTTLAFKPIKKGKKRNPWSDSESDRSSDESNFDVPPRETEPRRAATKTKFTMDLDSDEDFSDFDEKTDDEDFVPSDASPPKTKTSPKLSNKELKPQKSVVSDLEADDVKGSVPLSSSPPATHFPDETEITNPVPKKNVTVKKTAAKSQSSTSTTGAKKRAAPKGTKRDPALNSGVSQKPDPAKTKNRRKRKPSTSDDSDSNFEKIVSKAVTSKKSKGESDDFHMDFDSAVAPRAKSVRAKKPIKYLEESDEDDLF

## O=c1c2cc(Cl)ccc2sc2c(NCCCNCCO)nc3ccccc3c12 [Compound N19, 10-Chloro-6-((3-((2-hydroxyethyl)amino)propyl)amino)-12H-thiochromeno[2,3-c]quinolin-12-one]
[1]; HCC-2998, 10^−5 molar
  Growth percent: −74.47%
[1]; HCC-2998, five dose
  TGI: 3420 nM
[1]; Homo sapiens, HCC-2998, five dose
  GI50: 1580 nM
[2]; Homo sapiens, SF-539, five dose
  GI50: 1700 nM
[2]; SF-539, 10^−5 molar
  Growth percent: −47.59%
[2]; SF-539, five dose
  TGI: 3220 nM
[3]; Homo sapiens, OVCAR-3, five dose
  GI50: 1790 nM
[3]; OVCAR-3, five dose
  TGI: 3510 nM
[4]; CCRF-CEM, 10^−5 molar
  Growth percent: −54.78%
[4]; CCRF-CEM, five dose
  TGI: 3800 nM
[4]; Homo sapiens, CCRF-CEM, five dose
  GI50: 1830 nM
[5]; Homo sapiens, SK-MEL-5, five dose
  GI50: 1600 nM
[5]; SK-MEL-5, 10^−5 molar
  Growth percent: 62.02%
[5]; SK-MEL-5, five dose
  TGI: 3000 nM
[6]; Homo sapiens, PC-3, five dose
  GI50: 1510 nM
[6]; Homo sapiens, PC-3, five dose, read-out: LC50 (the source's name)
  CC50: 5660 nM
[6]; PC-3, 10^−5 molar
  Growth percent: −26.98%
[6]; PC-3, five dose
  TGI: 2920 nM
[7]; Homo sapiens, SK-Mel-2, five dose
  GI50: 2050 nM
[7]; SK-Mel-2, 10^−5 molar
  Growth percent: 53.64%
[7]; SK-Mel-2, five dose
  TGI: 3770 nM
[8]; Homo sapiens, UACC-257, five dose
  GI50: 1860 nM
[8]; Homo sapiens, UACC-257, five dose, read-out: LC50 (the source's name)
  CC50: 6330 nM
[8]; UACC-257, 10^−5 molar
  Growth percent: 45.70%
[8]; UACC-257, five dose
  TGI: 3440 nM
[9]; Homo sapiens, OVCAR-4, five dose
  GI50: 1600 nM
[9]; OVCAR-4, 10^−5 molar
  Growth percent: 12.32%
[9]; OVCAR-4, five dose
  TGI: 3230 nM
[10]; CAKI-1, five dose
  TGI: 2690 nM
[10]; Homo sapiens, CAKI-1, five dose
  GI50: 1330 nM
[10]; Homo sapiens, CAKI-1, five dose, read-out: LC50 (the source's name)
  CC50: 5450 nM
[11]; HCT-116, 10^−5 molar
  Growth percent: −91.19%
[11]; HCT-116, five dose
  TGI: 3050 nM
[11]; Homo sapiens, HCT-116, five dose
  GI50: 1600 nM
[12]; five different concentrations, TopoGEN TG2005H, TG-2000H-1, read-out: IC50 value, TOP II mediated supercoiled DNA relaxation
  IC50: ~1000 nM
[12]; primary assay at 25 and/or 50 μM
  inhibitory effect in TOP II relaxation assay compared with VP-16: more potent inhibitory effects than the positive agent VP-16
[13]; BT-549, 10^−5 molar
  Growth percent: 98.48%
[13]; BT-549, five dose
  TGI: 3150 nM
[13]; Homo sapiens, BT-549, five dose
  GI50: 1670 nM
[14]; Homo sapiens, RPMI-8226, five dose
  GI50: 1840 nM
[14]; RPMI-8226, 10^−5 molar
  Growth percent: 5.53%
[14]; RPMI-8226, five dose
  TGI: 4210 nM
[15]
  IC50: ~5000 nM
[16]
  Growth percent: −37.88%
[17]; Homo sapiens, IGROV-1, IGROV1, five dose
  GI50: 1660 nM
[17]; IGROV1, 10^−5 molar
  Growth percent: −43.25%
[17]; IGROV1, five dose
  TGI: 3600 nM
[18]; COLO 205, 10^−5 molar
  Growth percent: −87.17%
[18]; COLO 205, five dose
  TGI: 3370 nM
[18]; Homo sapiens, COLO 205, five dose
  GI50: 1630 nM
[19]; Homo sapiens, SK-OV-3, five dose
  GI50: 1680 nM
[19]; Homo sapiens, SK-OV-3, five dose, read-out: LC50 (the source's name)
  CC50: 6800 nM
[19]; SK-OV-3, 10^−5 molar
  Growth percent: 76.48%
[19]; SK-OV-3, five dose
  TGI: 3380 nM
[20]; Homo sapiens, M14, five dose
  GI50: 1830 nM
[20]; M14, 10^−5 molar
  Growth percent: 6.12%
[20]; M14, five dose
  TGI: 3530 nM
[21]; Homo sapiens, NCI-H460, five dose
  GI50: 1660 nM
[21]; NCI-H460, 10^−5 molar
  Growth percent: −80.98%
[21]; NCI-H460, five dose
  TGI: 3350 nM
[22]; HOP-92, 10^−5 molar
  Growth percent: 23.01%
[22]; HOP-92, five dose
  TGI: 4580 nM
[22]; Homo sapiens, HOP-92, five dose
  GI50: 1230 nM

## CN(C)CCCNc1nc2ccccc2c2c(=O)c3cc(Cl)ccc3sc12 [Compound N17, 10-Chloro-6-((3-(dimethylamino)propyl)amino)-12H-thiochromeno[2,3-c]quinolin-12-one]
[1]; HCC-2998, 10^−5 molar
  Growth percent: 108.36%
[2]; SF-539, 10^−5 molar
  Growth percent: 87.85%
[4]; CCRF-CEM, 10^−5 molar
  Growth percent: 69.06%
[5]; SK-MEL-5, 10^−5 molar
  Growth percent: 91.73%
other
  melting point: 194 to 195 °C
[6]; PC-3, 10^−5 molar
  Growth percent: 81.31%
[7]; SK-Mel-2, 10^−5 molar
  Growth percent: 106.47%
[8]; UACC-257, 10^−5 molar
  Growth percent: 107.40%
[9]; OVCAR-4, 10^−5 molar
  Growth percent: 94.63%
[10]; CAKI-1, 10^−5 molar
  Growth percent: 84.31%
[11]; HCT-116, 10^−5 molar
  Growth percent: 70.19%
[13]; BT-549, 10^−5 molar
  Growth percent: 99.81%
[14]; RPMI-8226, 10^−5 molar
  Growth percent: 78.66%
[16]
  Growth percent: 77.32%
[17]; IGROV1, 10^−5 molar
  Growth percent: 87.27%
[18]; COLO 205, 10^−5 molar
  Growth percent: 91.35%
[19]; SK-OV-3, 10^−5 molar
  Growth percent: 99.91%
[20]; M14, 10^−5 molar
  Growth percent: 103.73%
[23]
  inhibitory effect in TOP I activity assay compared with CPT: more potent inhibitory effects than CPT
[21]; NCI-H460, 10^−5 molar
  Growth percent: 88.06%
[22]; HOP-92, 10^−5 molar
  Growth percent: 40.76%

## O=c1c2cc(Cl)ccc2sc2c(NCCO)nc3ccccc3c12 [Compound N9, 10-Chloro-6-(2-ethanolamino)-12H-thiochromeno[2,3-c]quinolin-12-one]
[1]; [24]
  Growth percent HCC-2998: 101.55%
[2]; CNS cancer, 10^−5 molar, 48 hours, SRB
  Growth percent SF-539: 90.56%
[3]; [25]
  Growth percent OVCAR-3: 103.35%
[4]; [26]
  Growth percent CCRF-CEM: 81.07%
[5]; [27]
  Growth percent SK-MEL-5: 97.36%
[6]; Prostate cancer, 10^−5 molar, 48 hours, SRB
  Growth percent PC-3: 71.70%
[7]; [27]
  Growth percent SK-MEL-2: 86.80%
[8]; [27]
  Growth percent UACC-257: 89.33%
[9]; [25]
  Growth percent OVCAR-4: 102.67%
[10]; Renal cancer, 10^−5 molar, 48 hours, SRB
  Growth percent CAKI-1: 89.29%
[11]; [24]
  Growth percent HCT-116: 93.62%
[13]; Breast cancer, 10^−5 molar, 48 hours, SRB
  Growth percent BT-549: 131.62%
[14]; [26]
  Growth percent RPMI-8226: 83.81%
[16]; Leukemia, 48 hours, SRB
  Growth percent HL-60(TB): 104.58%
[17]; [25]
  Growth percent IGROV1: 88.51%
[18]; [24]
  Growth percent COLO 205: 99.13%
[19]; [25]
  Growth percent SK-OV-3: 104.57%
[20]; [27]
  Growth percent M14: 107.09%
[21]; [28]
  Growth percent NCI-H460: 100.97%
[22]; [28]
  Growth percent HOP-92: 63.17%
